From patent US6534539B2, “Pharmaceutical composition and method for treatment of dyspepsia” (Hoffman-La Roche Inc., priority 2000, dated 2003) come the findings set out here.

What all share (assay type): in vivo, human
Test [1] relates to normal volunteers, clinical model of dyspepsia (gastric distension). The experiment in a line: Pressure-volume relationships during gastric distensions and duodenal infusion of fat emulsion (gastric barostat). As to conditions: p <0.05. The text has this:
(§1) The reduction of dyspeptic symptoms by lipase inhibitors, particularly orlistat, was shown in human clinical studies that measured functional dyspepsia. Specifically, we measured the reduction of dyspeptic symptoms after administration of orlistat to normal volunteers (healthy subjects without a history of gastrointestinal disease (8 female and 7 male), aged 24-38 years; normal body weight (BMI (kg/m^2): females: 21.9±0.4, males: 23.4±0.4) during infusion of a fat emulsion into the duodenum in a clinical model of idopathic dyspepsia (gastric distension). BMI means body mass index.
(§2) Fat emulsions (Table 1) were infused intraduodenally via a single-lumen, naso-duodenal polyvinyl tube as described previously (Feinle, AJP2000), while the stomach was distended. Gastrointestinal sensations were assessed by a visual analog questionnaire. […]
(§3) Studies were performed in a double-blind, placebo-controlled, cross-over fashion in randomised order at least one week apart. […] At first, the minimal distending pressure (MDP) was determined by increasing intragastric pressure in steps of 1 mmHg/min. Pressure was then fixed at MDP and fasting tone recorded until variations in gastric volume were no longer observed. […] Two isobaric distensions were performed, 15 min apart from each other, by increasing intrabag pressure in steps of 1 mmHg/min, while corresponding volumes were monitored. […]

Test [2] has the same test system. In words: Gastrointestinal sensations (visual analogue scales) during gastric distensions and duodenal infusion of fat emulsion.
Text: as §1, §2, §3

The test system is the same in test [3]. The experiment in a line: Changes in gastric tone (gastric baseline volume at MDP) during duodenal infusions. To be noted: orlistat added to oil emulsion infused intraduodenally; p <0.05.
Text: as §1
Fat emulsions (Table 1) were infused intraduodenally via a single-lumen, naso-duodenal polyvinyl tube as described previously (Feinle, AJP2000), while the stomach was distended. Gastrointestinal sensations were assessed by a visual analog questionnaire.
as §3

On to `CCCCCCCCCCC[C@@H](C[C@@H]1OC(=O)[C@H]1CCCCCC)OC(=O)[C@H](CC(C)C)NC=O` [orlistat], for which the “Maximally tolerated pressure during gastric distension” value in test [1] is “significantly increased”. Moreover, the “Effects of LCTs on scores for fullness, bloating, nausea, pressure and hunger” value in test [2] (increasing intragastric pressure during duodenal fat infusion) was “significantly diminished”. In test [2] (orlistat added to fat emulsion infused into the duodenum, gastric distension by inflatable balloon), the “Intensity of stomach fullness and sensitivity, nausea and bloating” value is on record as “reduced”. In addition, the “Gastric baseline volume change during infusions” value in test [3] is listed as “completely abolished”.
